{"source": "patent US20030083313A1", "about": "“Means of tumor therapy” (priority 1998, published 2003)", "key": {"[1]": {"test": "Alteration of body weight in the in vivo treatment test", "details": "3366/Tam-bearing female NMRI nude mice, dose Tam/Lipid mg/kg/injection as per group, twice a day for 4 weeks", "method": "(§1) Tam liposomes according to Example 4 are used for the in vivo treatment test. As a tumor model, breast cancer 3366/Tam is transplanted onto female NMRI nude mice and the treatment started when the tumor is palpable. The animals are given one dose of liposomes with 50 mg/kg Tam (and correspondingly 25 mg/kg OPP) twice a day for 4 weeks. As controls, liposomes containing no Tam are administered, in addition one group being treated with free Tam. The tumor growth in relation to the control group (physiological salt solution) is determined and portrayed as a percentage T/C, as shown in FIG. 1 and in Table 1. […] The living cells were determined with the MTT assay."}, "[2]": {"test_system": "breast cancer 3366/Tam", "test": "Therapeutic effectivity on tamoxifen-resistant breast cancer xenograft, tumor growth as T/C", "format": "in vivo", "details": "3366/Tam tumor on female NMRI nude mice; dose Tam/Lipid mg/kg/injection as per group (50/0, 50/25, 0/25), twice a day for 4 weeks", "method": "as §1"}}}
{"smiles": "CC/C(=C(\\c1ccccc1)c1ccc(OCCN(C)C)cc1)c1ccccc1", "note": "[tamoxifen]", "values": [{"measurement": "Alteration of body weight % (day 29/51)", "setting": "[1]", "value": "−5", "unit": "%"}, {"measurement": "T/C (tumor growth in relation to the control group, physiological salt solution)", "setting": "[2]", "value": 91, "unit": "%"}]}
